Measurements taken from patent publication US5344841A, “Bis-(hydroxylakylamino)-anthraquinone inhibitors of protein kinase C” (Sphinx Pharmaceuticals Corporation, priority 1992, dated 1994).

How the values were obtained:
[1] = tested on: 8226/ADR adriamycin resistant line of 8226 cells; experiment: Human tumor growth inhibition, 3H-thymidine incorporation, 8226/ADR; assay type: cell-based; conditions: 3H-thymidine uptake
[2] = tested on: MCF-7/ADR adriamycin resistant line of MCF-7 cells; experiment: Human tumor growth inhibition, 3H-thymidine incorporation, MCF-7/ADR; assay type: cell-based; conditions: NCI/ADR-RES, 3H-thymidine uptake
Melanotic Melanoma B16 = experiment: Melanotic melanoma B16 test in mice, survival time; assay type: in vivo, mouse; conditions: 100 mg/kg ip once daily for nine days
Procedure: Melanotic Melanoma B16 Test. The animals used were B6 C3 F1 mice, all of one sex, weighing a minimum of 18 g for males and 17 g for females and all within a 4 g weight range at the start of the test. The test group comprised 9 or 10 mice. The tumor was implanted in each of the test mice by the subcutaneous injection of 0.5 ml of a tumor homogenate prepared by homogenizing a 1 g portion of melanotic melanoma in 10 ml of cold physiological saline. Compound 1a-1 suspended in hydroypropylcellulose was administered intraperitoneally at a dose of 100 mg/kg once daily for nine consecutive days staring on Day 1 relative to the day of tumor inoculation (Day 0). The control mice received injections of hydroxyproplcellulose vehicle only. The mice were weighed and survivors were recorded on a regular basis for sixty days. The median survival times and the ratio of the median survival times for treated (T) to control (C) mice were calculated. The median survival time of the nontreated rumored mice ranged from 15 to 17 days. Drug effectiveness was assessed on the basis of survival time. Results were expressed as a percentage of the control survival time (Survival Time T/C×100%; T=test animals; C=control animals). The criterion for effectiveness was determined by T/C×100≥125 percent.

[3] = tested on: MCF-7/ADR adriamycin resistant line of MCF-7 cells; experiment: Human tumor growth inhibition, 3H-thymidine incorporation, MCF-7/ADR; assay type: cell-based; conditions: MCF-7/ADR vs MCF-7
Excerpt: (§1) MCF-7 a human breast tumor cell line, and MCF-7/ADR an adriamycin resistant line of MCF-7 cells were obtained from the National Cancer Institute, Frederick, Md. NHEK a human keratinocyte cell line was obtained from Clonetic Corp., San Diego, Calif. 8226 a human myeloma cell line, 8226/MT a Mitoxantrone resistant line of 8226 cells, and 8226 ADR an adriamycin resistant line of 8226 cells were obtained from Dr. Bill Dalton, Arizona Cancer Center, Tuscon, Ariz.
(§2) Human tumor cells are trypsinized (0.05% trypsin, GIBCO), counted with a hemacytometer and seeded at a concentration of 10,000 cells/well in a 96 well microtiter plate. After allowing cells to attach to the surface overnight, the culture medium is aspirated and replaced with 100 μl of fresh medium. Test agents are diluted to determine dose response at 2× final concentration and added in quadruplicate at 100 μl/well to bring the total volume of each well to 200 μl. The microtiter plate is then incubated at 37° C. 5% CO2 overnight (18-24 hrs) before ^3 H-thymidine is added at a concentration of 0.5 μCi/well in 50 μl culture medium. The plate is incubated again for 4 hrs under the same conditions as above. Supernatant is then aspirated and 50 μl trypsin (0.05%, GIBCO) is added to each well. Cells are checked microscopically to determine detachment from surfaces, and plates are then harvested with a cell harvester (PHD, Cambridge Technology, Inc.) Filter papers corresponding to wells are placed in scintillation vials and counted to determine the amount of ^3 H-thymidine incorporated by the cells. Test agent response is compared to a positive control of cell wells with culture media only to determine the IC50. IC50 is the concentration of test compound required to inhibit fifty percent of the incorporation of ^3 H-thymidine into proliferating cells not exposed to test agent. Uptake of ^3 H-thymidine is a standard test for measuring the metabolism of cells. Cells which are actively proliferating take up ^3 H-thymidine, whereas cells that are not proliferating take up ^3 H-thymidine at much slower rates or not at all. Test agents that inhibit the uptake of ^3 H-thymidine thus slow the growth of cells.

NHEK human keratinocytes = experiment: Human keratinocyte inhibition, 3H-thymidine incorporation; assay type: cell-based
Procedure: Human tumor cells are trypsinized (0.05% trypsin, GIBCO), counted with a hemacytometer and seeded at a concentration of 10,000 cells/well in a 96 well microtiter plate. After allowing cells to attach to the surface overnight, the culture medium is aspirated and replaced with 100 μl of fresh medium. Test agents are diluted to determine dose response at 2× final concentration and added in quadruplicate at 100 μl/well to bring the total volume of each well to 200 μl. The microtiter plate is then incubated at 37° C. 5% CO2 overnight (18-24 hrs) before ^3 H-thymidine is added at a concentration of 0.5 μCi/well in 50 μl culture medium. The plate is incubated again for 4 hrs under the same conditions as above. […] Cells are checked microscopically to determine detachment from surfaces, and plates are then harvested with a cell harvester (PHD, Cambridge Technology, Inc.) Filter papers corresponding to wells are placed in scintillation vials and counted to determine the amount of ^3 H-thymidine incorporated by the cells. […]
Proliferating keratinocytes (NHEK cells purchased from Clonetics, Inc. San Diego, Calif.) in second passage were grown in Keratinocyte Growth Medium (KGM) (Clonetics, Inc.) Cells were trypsinized with 0.025% trypsin (Clonetics), counted with a hemacytometer (Scientific Products), and seeded at a concentration of 2,500 cells/well in a 96 well microtiter plate. […]

[4] = tested on: 8226 human myeloma cell line; experiment: Human tumor growth inhibition, 3H-thymidine incorporation, 8226; assay type: cell-based; conditions: 3H-thymidine uptake, read-out: IC50 8226
Excerpt: as §1, §2

[5] = tested on: MCF-7 human breast tumor cell line; experiment: Human tumor growth inhibition, 3H-thymidine incorporation, MCF-7; assay type: cell-based; conditions: 3H-thymidine uptake; read-out: IC50 MCF-7
Excerpt: as §1, §2

P388 murine leukemia = experiment: P388 leukemia tumor assay in mice, survival time; assay type: in vivo, mouse; conditions: for % T/C p388 Leukemia: survival time
Excerpt: P388 Leukemia Tumors. Mice were young adult, pathogen-free, BALA/c×DBA/2 F1 (i.e., CD2F1) females purchased from Charles River Laboratories. The tumor line was the P388 murine leukemia, ascites form, obtained from the National Cancer Institute (NCI) Tumor Repository (Frederick, Md.). The tumor was maintained in the serial passage in mice by periodic intraperitoneal (ip) implantation. For this experiment, 10^6 hemacytometer-counted P388 murine leukemia cells were implanted ip into mice on Day 0. The mice were randomized into one untreated control group of 20 and 15 test groups of six mice each. All drug treatment was delivered ip on the basis of the average body weight of each group. […] Body weights were recorded on Days 1, 5, 9, 11, and 18. Deaths were recorded daily. Dying mice were necropsied, and the presence or absence of ascites or splenomegaly was recorded. Drug effectiveness was assessed on the basis of the survival time. Results were expressed as a percentage of the control survival time (Survival Time=T/C×100%; T=test animals; C=control animals). The criterion for effectiveness was determined by: T/C×100≥125 percent.

[6] = tested on: 8226/MT Mitoxantrone resistant line of 8226 cells; experiment: Human tumor growth inhibition, 3H-thymidine incorporation, 8226/MT
[7] = tested on: 8226/ADR adriamycin resistant line of 8226 cells; experiment: Human tumor growth inhibition, 3H-thymidine incorporation, 8226/ADR; assay type: cell-based; conditions: 8226/ADR vs 8226
Excerpt: as §1, §2

## CCN(CC)CC(O)CNc1ccc(NCC(O)CCl)c2c1C(=O)c1ccccc1C2=O (stereo not drawn) [Compound 1a-1]
[1]
  IC50: 80 nM
[2]
  IC50: 500 nM
Melanotic Melanoma B16
  % T/C (B16 median survival time): 129%
  effect on survival time of mice (in words): effective for increasing survival time of the mice
[3]
  Resistance Ratio (IC50 MCF-7/ADR to IC50 MCF-7): 2
NHEK human keratinocytes
  IC50: 160 nM
[4]
  IC50: 1000 nM
[5]
  IC50: 250 nM
P388 murine leukemia; 67 mg/kg, Q1D × 9, ip
  % T/C p388 Leukemia: 140%
P388 murine leukemia; 150 mg/kg Q1D × 9, ip
  % T/C p388 Leukemia: 130%
P388 murine leukemia; all dosages and schedules
  survival time of mice (in words): effectively increased the survival time
[6]; 8226/MT vs 8226
  Resistance Ratio (8226/MT): 0.24
[6]; Homo sapiens, read-out: IC50 8226/MT
  IC50: 240 nM
[6]; text wording of ratio
  ratio of IC50 for 8226 cells to IC50 for 8226/MT cells: 0.24
[7]
  Resistance Ratio (8226/ADR): 0.08
